Laboratory results from patent publication US9994862B2, “Rice resistant to HPPD and ACCase inhibiting herbicides” (priority 2011, dated 2018).
“Also recorded” adds a separate entry of the source.

What was measured:
[1] = system: HPPD tolerant line ML0831266-03093; assay: ACCase herbicide field trial; assay type: in vivo, rice; conditions: for resistance to ACCase inhibiting herbicides compared with line P1003: 0.5x to 4x of label rate (fluazifop 210 gmai/ha, quizalofop 77 gmai/ha)
Experimental: (§1) FIG. 3A-3B is a photograph of line ML0831266-03093 that in addition to resistance to HPPD herbicides also has enhanced resistance to ACCase herbicides. […] Picture taken four weeks after herbicide application.
(§2) During the process of showing equivalent resistance of the ACCase tolerance in the new line PL1214418M2-73009, the HPPD tolerant line ML0831266-03093 was also evaluated for response to ACCase tolerance by application of the ACCase herbicides fluazifop at 0.5×, 1×, 2×, and 4× multiples of the label application rate (210 gmai/ha) and quizalofop at 0.5×, 1×, 2×, and 4× multiples of the label application rate (77 gmai/ha). In the field trials the resistant HPPD line ML0831266-03093 was planted in a row adjacent to the parent line P1003. […] By combining the HPPD tolerance with the ACCase tolerance the newly developed line PL1214418M2-73009, or any other new line and other derived lines because resistance is heritable and can be bred into lines e.g. progeny may carry a higher tolerance to ACCase inhibiting herbicides than lines developed from only the ACCase inhibitor resistant line ML0831265-01493.

line P1003 = assay: ACCase herbicide field trial; assay type: in vivo, rice; conditions: four weeks after application
Experimental: as §1, §2

line PL1214418M2-80048 = assay: Herbicide tolerance of the combined HPPD and ACCase line; design: species or system rice; conditions: in vivo
Excerpt: An early maturing group of plants was harvested as early as possible and the seeds planted in the greenhouse to help quickly advance to the F4 generation. Selections on the F3 plants were made by molecular markers flanking the HPPD tolerance mutation and native tolerance the ACCase functional mutation. Homozygous plants for all the selected genomic regions were advanced to the F5 generation. The F5 seed was confirmed to carry tolerance to ACCase herbicides and the HPPD herbicide mesotrione. Among the F5 lines PL1214418M2-80048 was selected due to a high seed yield and being homozygous for the ACCase tolerance mutation at position G2096S, the HPPD tolerance mutation, and the HPPD tolerance native gene. Seed from the line PL1214418M2-80048 was deposited at the ATCC and given a deposit number PTA-121362 (see Table 8).
Individuals with tolerance to both mesotrione and ACCase herbicides were selfed to produce F3 families and further selected for other important agronomic characters. The F3 lines were selfed and purified to derive a new line or variety with dual resistance to mesotrione and ACCase herbicides. Such lines are highly valuable as the use of both herbicides provides more complete and broad-spectrum weed control. […]

line PL1214418M2-73009 = assay: ACCase herbicide field trial; assay type: in vivo, rice; conditions: for tolerance to ACCase herbicide compared with donor line ML0831265-01493: 0.5x to 4x of label rate (fluazifop 210 gmai/ha, quizalofop 77 gmai/ha)
Experimental: FIG. 2 is a graphical representation of a trait tolerance trial; the trial rice were planted, quizalofop was applied at the indicated rates about 5 weeks later (initiating tillering); the rice was evaluated for the percent of injury or damage as compared to unsprayed rice four weeks after herbicide application; line ML0831265-01493 is the ACCase resistant line and R0146 and P1003 are control lines; the line PL1214418M2-73009 was selected out of a cross between the HPPD tolerant line ML0831266-03093 (parent is P1003) and the ACCase tolerant line ML0831265-01493 (parent is R0146).
(§3) Another trial was conducted to confirm recovery of the ACCase inhibitor resistance from the G2096S mutation as in the line ML0831265-01493. In this trial the new line PL1214418-73009 with combined HPPD and ACCase tolerance was planted in a row along with other various lines including the original donor line ML0831265-01493 (planted in a plot), ML0831266-03093, P1003, R0146 parent line for ACCase tolerance. The lines were all tested with the ACCase herbicides fluazifop at 0.5×, 1×, 2×, and 4× multiples of the label application rate (210 gmai/ha) and quizalofop at 0.5×, 1×, 2×, and 4× multiples of the label application rate (77 gmai/ha).

[2] = system: common grass weeds, such as barnyard grass; assay: Grass weed control by ACCase herbicides in rice; assay type: in vivo; conditions: for control of common grass weeds in rice: in vivo
Excerpt: (§4) FIG. 5 illustrates grass weed control by the ACCase inhibitor quizalofop; control is shown by the prevalent grass weed (dead plants) being killed by quizalofop (77 gm ai/ha) while the resistant line ML0831265-01493 (live plants) were not injured.
Rice is tolerant to certain ACCase inhibitor herbicides, for example cyhalofop is registered for use in rice. However other ACCase herbicides kill or severely injure rice to varying degrees. […] The applied rates of both types of herbicides giving the weed control are well within the tolerance level of the respective ACCase and HPPD tolerant lines including the combined lines carrying tolerance to both HPPD and ACCase herbicides.

[3] = system: ACCase resistant line ML0831265-01493; assay: ACCase herbicide field trial; assay type: in vivo, rice; conditions: quizalofop 77 gm ai/ha
Experimental: as §4, §3
After screening a large mutant population, the line ML0831265-02283 also survived application of the ACCase herbicide quizalofop. The line was increased to obtain sufficient seed for larger trials to evaluate its tolerance to ACCase herbicides. […] Twenty one days after the herbicide was applied the plots were evaluated for percent injury caused to the rice based on control plots that had no herbicide application (FIG. 8). […]

line ML0831265-02283 = assay: ACCase herbicide field trial; assay type: in vivo, rice
Excerpt: After screening a large mutant population, the line ML0831265-02283 also survived application of the ACCase herbicide quizalofop. The line was increased to obtain sufficient seed for larger trials to evaluate its tolerance to ACCase herbicides. The tolerance to ACCase herbicides in line ML0831265-02283 was validated by planting in the field plots (5 feet by 10 feet) of the line, the non-mutant parent line R0146, a second non-mutant line P1003, and the ACCase tolerant line ML0831265-01493. The ACCase herbicide quizalofop was applied at the four leaf stage at 0.5×, 1×, 2×, and 4× multiples of the labeled rate (77 gmai/ha). Twenty one days after the herbicide was applied the plots were evaluated for percent injury caused to the rice based on control plots that had no herbicide application (FIG. 8). The data confirms the tolerance of line ML0831265-02283 and it may even carry more tolerance than line ML0831265-01493 as shown by less injury at the 2× and 4× rates of quizalofop.

Compound | resistance to ACCase inhibiting herbicides compared with line P1003 [1] | killing of rice plants (line P1003; fluazifop alone 210 gmai/ha at initiation of tillering) | tolerance to the herbicide (line PL1214418M2-80048) | tolerance to ACCase herbicide compared with donor line ML0831265-01493 (line PL1214418M2-73009) | tolerance to fluazifop (line PL1214418M2-73009; in vivo) | control of common grass weeds in rice [2] | injury of the rice [3] | survival after quizalofop ([1]; 77 gm ai/ha, four weeks after application) | survival after quizalofop (line P1003; 77 gm ai/ha) | grass weed control ([2]; quizalofop 77 gm ai/ha, prevalent grass weed) | injury compared with line ML0831265-01493 (line ML0831265-02283; 2x and 4x of the labeled rate 77 gmai/ha, four leaf stage, 21 days after application) | survival in the screening of the mutant population (line ML0831265-02283; in vivo)
CC(Oc1ccc(Oc2ccc(C(F)(F)F)cn2)cc1)C(=O)O (stereo not drawn) [fluazifop] | more resistance | no killing of the rice plants was observed | tolerance | equivalent tolerance | tolerance | good control |  |  |  |  |  | 
CC(Oc1ccc(Oc2cnc3cc(Cl)ccc3n2)cc1)C(=O)O (stereo not drawn) [quizalofop] | more resistance |  |  | equivalent or better; also recorded: equivalent tolerance |  | good control | not injured | surviving | does not survive | killed | less injury | survived
